Results from patent US8871728B2, “Non-peptide macrocyclic histone deacetylese (HDAC) inhibitors and methods of making and using thereof” (Georgia Tech Research Corporation, priority 2007, dated 2014).
Like-named read-outs stand apart in the source and are kept apart here.

Tests used:
[1] = tested on: HeLa nuclear extract HDAC1/2; assay: Fluor de Lys HDAC inhibition, HeLa nuclear extract; assay type: biochemical, human; conditions: HeLa nuclear extract; average of three independent experiments; Table 4; read-out: HDAC ½
From the text: Fluor de Lys™ is a fluorescence based HDAC activity assay comprising a combination of fluorogenic Histone deAcetylase Lysyl substrate and a developer. The kit is a highly sensitive and convenient alternative to radiolabeled, acetylated histones or peptide/HPLC methods for the assay of histone deacetylases. This assay is based on the ability of HeLa nuclear extract, which is enriched in HDAC activity, to mediate the deacetylation of the acetylated lysine side chain of the Fluor de Lys substrate. The assay procedure requires two steps. First, incubation of the HeLa nuclear extract with the Fluor de Lys substrate results in substrate deacetylation and thus sensitizes it to the second step. In the second step, treatment of the deacetylated substrate with the Fluor de Lys developer produces a fluorophore. The substrate-developer reaction, under normal circumstances goes to completion in less than 1 min at 25° C. The kit used was the Fluorimetric Assay/Drug Discovery Kit—AK-500 Manual Fluorescent Assay System available from BIOMOL® International, Plymouth Meeting, Pa.
Each IC50 value was obtained by averaging three independent experiments.

[2] = biological target: T1, HDAC8 (Homo sapiens (Human), UniProt Q9BY41); assay: Fluor de Lys HDAC8 inhibition; assay type: biochemical; conditions: average of three independent experiments; Table 4; read-out: HDAC 8
[3] = tested on: lung fibroblasts; assay: Cell viability, trypan blue exclusion; assay type: cell-based; conditions: Fibroblast; untransformed cells
From the text: (§1) Most importantly, the compounds we less toxic to untransformed cell-lines (lung fibroblast and HMEC).
(§2) Most importantly, these compounds are less toxic to untransformed cell-lines (lung fibroblast and HMEC) that we have studied to date.

[4] = tested on: DU 145 cells; assay: Cell viability, trypan blue exclusion; assay type: cell-based; conditions: Homo sapiens
From the text: as §1, §2

[5] = tested on: HMEC; assay: Cell viability, trypan blue exclusion; assay type: cell-based; conditions: Homo sapiens; untransformed cells
From the text: as §1, §2

[6] = tested on: NCI-H69; assay: Cell viability, trypan blue exclusion; assay type: cell-based; conditions: Homo sapiens
From the text: as §1, §2

[7] = tested on: SKMES 1; assay: Cell viability, trypan blue exclusion; assay type: cell-based; conditions: Homo sapiens, SK-MES-1
From the text: as §1, §2

[8] = biological target: HDAC6 (Homo sapiens (Human), UniProt Q9UBN7); assay: SAMDI mass spectrometry HDAC inhibition assay; assay type: biochemical
Description: (§3) There is precedence that fluorescently labeled substrates can perturb enzyme activity and the effect of inhibitors. […] Additionally, 3-hydroxypyridine-2-ones are highly colored solids and might lead to false positive signals. Mindful of these facts, a label-free SAMDI (self-assembled monolayers for MALDI) mass spectrometry assay was also used to assess HDAC inhibition.
The SAMDI technique, wherein self-assembled monolayers (SAM) of alkanethiolates on gold are analyzed by matrix assisted laser desorption/ionization (MALDI) mass spectrometry, has been widely used to characterize many biochemical activities, including the deacetylase enzyme family. The SAMDI assay was used to measure the inhibition constant (K1) of fragments against HDAC1, HDAC6 and HDAC8 using a previously identified preferred HDAC substrate.

[9] = biological target: T1, HDAC8; assay: SAMDI mass spectrometry HDAC inhibition assay; assay type: biochemical
Description: as §3
(§4) The SAMDI technique, wherein self-assembled monolayers (SAM) of alkanethiolates on gold are analyzed by matrix assisted laser desorption/ionization (MALDI) mass spectrometry, has been widely used to characterize many biochemical activities, including the deacetylase enzyme family.

[10] = biological target: HDAC1 (Homo sapiens (Human), UniProt Q13547); assay: SAMDI mass spectrometry HDAC inhibition assay; assay type: biochemical; conditions: SAMDI
Description: as §3, §4

[11] = tested on: Jurkat (T cell leukemia overexpressing HDAC8); assay: Anti-cancer activity screen; assay type: cell-based; conditions: Homo sapiens, Jurkat, read-out: Jurkat (μm)
[12] = tested on: DU 145 (androgen independent prostate cancer); assay: Anti-cancer activity screen; assay type: cell-based
[13] = tested on: LNCaP (androgen dependent prostate cancer); assay: Anti-cancer activity screen; assay type: cell-based; conditions: Homo sapiens, LNCaP
[14] = Homo sapiens, DU-145, calculated IC50 above 20 μM (highest concentration tested) also reported as >20

T1 sequence (Q9BY41 whole entry): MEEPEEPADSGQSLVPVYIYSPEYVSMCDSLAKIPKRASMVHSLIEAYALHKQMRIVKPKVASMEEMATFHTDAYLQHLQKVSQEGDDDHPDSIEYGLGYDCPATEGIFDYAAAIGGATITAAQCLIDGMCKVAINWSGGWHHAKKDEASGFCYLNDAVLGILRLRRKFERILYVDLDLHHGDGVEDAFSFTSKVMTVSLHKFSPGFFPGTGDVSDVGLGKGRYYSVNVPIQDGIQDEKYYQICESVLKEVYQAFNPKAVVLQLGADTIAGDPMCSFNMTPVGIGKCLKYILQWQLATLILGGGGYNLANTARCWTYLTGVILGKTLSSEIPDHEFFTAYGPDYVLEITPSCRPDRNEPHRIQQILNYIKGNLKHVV
Sequence of HDAC1 (Q13547 whole entry): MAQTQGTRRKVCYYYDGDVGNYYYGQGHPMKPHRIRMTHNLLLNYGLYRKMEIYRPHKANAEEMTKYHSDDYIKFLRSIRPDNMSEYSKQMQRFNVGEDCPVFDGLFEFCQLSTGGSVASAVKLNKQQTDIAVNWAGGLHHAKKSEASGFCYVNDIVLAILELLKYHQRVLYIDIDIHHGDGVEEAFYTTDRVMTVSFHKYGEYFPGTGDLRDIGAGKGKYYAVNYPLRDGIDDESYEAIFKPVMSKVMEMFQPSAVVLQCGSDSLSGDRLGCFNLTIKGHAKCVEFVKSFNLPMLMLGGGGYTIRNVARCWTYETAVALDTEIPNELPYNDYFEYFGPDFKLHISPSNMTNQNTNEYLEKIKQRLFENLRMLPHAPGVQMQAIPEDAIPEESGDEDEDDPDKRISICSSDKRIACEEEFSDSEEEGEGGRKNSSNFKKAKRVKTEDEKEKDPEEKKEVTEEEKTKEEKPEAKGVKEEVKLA
Sequence of HDAC6 (Q9UBN7 whole entry): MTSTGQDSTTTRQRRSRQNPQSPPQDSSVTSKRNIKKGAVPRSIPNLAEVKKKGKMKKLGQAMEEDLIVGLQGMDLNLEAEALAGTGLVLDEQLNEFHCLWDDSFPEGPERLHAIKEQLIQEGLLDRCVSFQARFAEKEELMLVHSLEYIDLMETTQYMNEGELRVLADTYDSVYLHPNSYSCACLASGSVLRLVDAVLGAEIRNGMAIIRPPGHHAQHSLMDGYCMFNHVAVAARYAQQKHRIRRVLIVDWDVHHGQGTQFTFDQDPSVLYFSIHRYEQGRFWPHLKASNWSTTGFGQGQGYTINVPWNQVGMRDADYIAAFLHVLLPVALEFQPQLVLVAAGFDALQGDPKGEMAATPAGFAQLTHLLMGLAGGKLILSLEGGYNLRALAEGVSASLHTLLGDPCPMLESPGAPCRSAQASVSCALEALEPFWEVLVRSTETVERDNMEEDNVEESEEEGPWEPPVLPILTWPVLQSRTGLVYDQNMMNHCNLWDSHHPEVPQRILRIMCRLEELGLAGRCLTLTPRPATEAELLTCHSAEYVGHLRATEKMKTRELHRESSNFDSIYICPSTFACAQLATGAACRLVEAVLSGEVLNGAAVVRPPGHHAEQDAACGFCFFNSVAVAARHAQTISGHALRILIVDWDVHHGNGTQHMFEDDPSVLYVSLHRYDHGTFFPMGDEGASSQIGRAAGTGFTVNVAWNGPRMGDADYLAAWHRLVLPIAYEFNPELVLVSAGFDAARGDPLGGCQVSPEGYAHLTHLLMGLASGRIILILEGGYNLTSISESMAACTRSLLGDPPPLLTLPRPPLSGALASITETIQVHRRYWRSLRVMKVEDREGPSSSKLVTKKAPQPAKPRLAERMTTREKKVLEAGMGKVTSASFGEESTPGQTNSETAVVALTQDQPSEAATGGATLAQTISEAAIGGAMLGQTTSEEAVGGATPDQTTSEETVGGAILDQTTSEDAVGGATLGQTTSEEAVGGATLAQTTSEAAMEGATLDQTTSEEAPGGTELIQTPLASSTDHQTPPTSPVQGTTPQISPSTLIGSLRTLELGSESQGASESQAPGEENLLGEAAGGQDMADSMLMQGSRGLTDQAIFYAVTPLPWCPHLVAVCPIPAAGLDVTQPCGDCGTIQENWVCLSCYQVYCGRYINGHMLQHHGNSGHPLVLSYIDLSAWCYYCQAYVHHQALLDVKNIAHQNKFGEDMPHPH

SMILES | IC50 [1] [µM] | IC50 [2] [µM] | EC50 [3] [µM] | EC50 [4] [µM] | EC50 [5] [µM] | EC50 [6] [µM] | EC50 [7] [µM] | IC50 ([8]; SAMDI, read-out: HDAC6 IC50) [µM] | IC50 ([9]; SAMDI, read-out: HDAC8 IC50) [µM] | IC50 ([9]; SAMDI, read-out: HDAC8 activity (IC50)) [µM] | IC50 ([9]; Table 14, read-out: HDAC 8 (nm)) [µM] | HDAC1 inhibition, symbol [10] | IC50 [11] [µM] | IC50 [12, 14] [µM] | IC50 ([12]; calculated IC50 above 20 μM (highest concentration tested) also reported as >20) [µM] | IC50 [13] [µM] | IC50 ([8]; Table 14, read-out: HDAC 6 (nm)) [µM]
CC[C@H]1OC(=O)[C@H](C)[C@@H](O[C@H]2C[C@@](C)(OC)[C@@H](O)[C@H](C)O2)[C@H](C)[C@@H](O[C@@H]2O[C@H](C)C[C@H](N(C)Cc3ccc(-c4cn(CCCCCC(=O)NO)nn4)cc3)[C@H]2O)[C@](C)(OC)C[C@@H](C)C(=O)[C@H](C)[C@@H](O)[C@]1(C)O [Compound 23, Clarithromycin-N-phenyltriazolylhexahydroxamic acid] | 0.037 | 3.99 | > 10 | 2.98 | > 10 | 2.67 | 2.15 |  |  |  |  |  |  |  |  |  | 
CC[C@H]1OC(=O)[C@H](C)[C@@H](O)[C@H](C)[C@@H](O[C@@H]2O[C@H](C)C[C@H](N(C)Cc3ccc(-c4cn(CCCCCC(=O)NO)nn4)cc3)[C@H]2O)[C@](C)(OC)C[C@@H](C)C(=O)[C@H](C)[C@@H](O)[C@]1(C)O [Compound 24, Descladinose-Clarithromycin-N-phenyltriazolylhexahydroxamic acid] | 0.0443 | 4.75 | > 10 | 3.29 | > 10 | 1.92 | 1.95 |  |  |  |  |  |  |  |  |  | 
CC[C@H]1OC(=O)[C@H](C)[C@@H](O[C@H]2C[C@@](C)(OC)[C@@H](O)[C@H](C)O2)[C@H](C)[C@@H](O[C@@H]2O[C@H](C)C[C@H](N(C)Cc3ccc(-c4cn(CCCCCCC(=O)NO)nn4)cc3)[C@H]2O)[C@](C)(OC)C[C@@H](C)C(=O)[C@H](C)[C@@H](O)[C@]1(C)O [Compound 25, Clarithromycin-N-phenyltriazolylheptahydroxamic acid] | 0.00409 | 1.89 | > 10 | 1.12 | > 10 | 1.45 | 1.33 |  |  |  |  |  |  |  |  |  | 
CC[C@H]1OC(=O)[C@H](C)[C@@H](O)[C@H](C)[C@@H](O[C@@H]2O[C@H](C)C[C@H](N(C)Cc3ccc(-c4cn(CCCCCCC(=O)NO)nn4)cc3)[C@H]2O)[C@](C)(OC)C[C@@H](C)C(=O)[C@H](C)[C@@H](O)[C@]1(C)O [Compound 26, Descladinose-Clarithromycin-N-phenyltriazolylheptahydroxamic acid] | 0.00187 | 1.39 | > 10 | 1.05 | > 10 | 1.49 | 1.28 |  |  |  |  |  |  |  |  |  | 
CC[C@H]1OC(=O)[C@H](C)[C@@H](O[C@H]2C[C@@](C)(OC)[C@@H](O)[C@H](C)O2)[C@H](C)[C@@H](O[C@@H]2O[C@H](C)C[C@H](N(C)Cc3ccc(-c4cn(CCCCCCCC(=O)NO)nn4)cc3)[C@H]2O)[C@](C)(OC)C[C@@H](C)C(=O)[C@H](C)[C@@H](O)[C@]1(C)O [Compound 27, Clarithromycin-N-Phenyltriazolyloctahydroxamic acid] | 0.0556 | 5.88 | > 10 | 6.97 | > 10 | 5.67 | 4.89 |  |  |  |  |  |  |  |  |  | 
N#Cc1ccccc1-c1ccc(Cn2cccc(O)c2=S)cc1 [Compound 149c, 1-(2-Cyano-(1,1′-biphenylmethyl))-3-hydroxyoxypyridine-2-thione] |  |  |  |  |  |  |  | 0.372 ± 0.035 | 1.91 ± 0.771 | ~2 | 1.91 ± 0.771 | NI (No significant Inhibition (below 20% Inhibition)) | 8.95 ± 0.69 | 30 ± 5.85 | > 20 | 14.7 ± 0.84 | 
Cc1ccccc1-c1ccc(Cn2cccc(O)c2=S)cc1 [Compound 149f, 1-(2-Methyl-(1,1′-biphenylmethyl))-3-hydroxyoxypyridine-2-thione] |  |  |  |  |  |  |  |  |  |  |  | NI (No significant Inhibition (below 20% Inhibition)) |  | 13.6 ± 2.91 |  | 7.75 ± 0.73 | 0.306 ± 0.069
